The test system of one assay is DCP2. The assay can be described thus: DCP2 expression levels in SH-SY5Y cells, Western blot. Type of assay: cell-based, human. The note with it: 1 mM, 48 hours. How it is done: FIGS. 6A-6E depict that the decapping enzyme complex DCP1/2 is involved in LRRK2 mRNA decay. FIGS. 6A and 6B depict the DCP1A and DCP2 expression levels upon AICAr treatment. SH-SY5Y cells were treated with or without 1 mM AICAr for 48 hours. DCP1A and DCP2 expression levels were analyzed by Western blot. Images were quantified by ImageJ software. Data are mean±SEM, n=3 independent experiments. **p<0.01 by Student's t tests. FIGS. 6C and 6D depict the LRRK2 expression levels upon DCP1A or DCP2 overexpression. SH-SY5Y cells were transduced with lentiviruses carrying Flag-DCP1A or Flag-DCP2 for 48 hours. LRRK2 expression levels were analyzed by Western blot. Images were quantified by ImageJ software. Data are mean±SEM, n=3 independent experiments. *p<0.05 by Student's t tests. FIG. 6E depict LRRK2 mRNA decapping by DCP1A and DCP2. Recombinant DCP1A and DCP2 proteins were purified from HEK 293T cells and incubated with [α-32P]cap-labeled LRRK2 RNA. LRRK2 mRNA decapping was analyzed by one-dimensional thin layer chromatography.
A general note: A western blot detects proteins with antibodies after separation by electrophoresis.

The subject of assay [1] is LRRK2. Put plainly: Overexpressed LRRK2 levels in HEK 293T cells, Western blot. Type of assay: cell-based, human. How it is done:
(§1) FIGS. 2A-2T depicts that AICAr, the precursor of ATIC substrate, regulates LRRK2 expression levels and neuronal toxicity. FIGS. 2A and 2B depict the overexpressed LRRK2 levels in HEK 293T cells upon AICAr treatment. HEK293 cells were transfected with MYC-LRRK2 and treated with or without 1 mM AICAr for 48 hours. LRRK2 levels were analyzed by Western blot. FIGS. 2C and 2D depict the LRRK2 expression levels in SH-SY5Y cells upon AICAr treatment. Human neuroblastoma SH-SY5Y cells were treated with or without 1 mM AICAr for 48 hours. LRRK2 expression levels were analyzed by Western blot. FIGS. 2E and 2F depict the overexpressed (3-glucocerebrosidase (GCase) levels upon AICAr treatment. HEK 293T cells were transfected with V5-GCase and treated with or without 1 mM AICAr for 48 hours. GCase levels were analyzed by Western blot. FIGS. 2G-2N depict the LRRK2 expression levels in primary neurons (FIG. 2G and FIG. 2H), microglia (FIG. 2I and FIG. 2J), astrocytes (FIG. 2K and FIG. 2L) and human fibroblasts (FIG. 2M and FIG. 2N) upon AICAr treatment. Mouse primary cortical neurons, microglia, astrocytes or human fibroblasts from a health control were treated with or without 1 mM AICAr for 48 hours. LRRK2 expression levels were analyzed by Western blot. FIGS. 2O and 2P depict the overexpressed LRRK2 WT and pathogenic mutant levels upon AICAr treatment. HEK 293T cells were transfected with MYC-LRRK2 WT, R1441C (RC), R1441G (RG), Y1699C (YC), G2019S (GS) or I2020T (IT) and treated with or without 1 mM AICAr for 48 hours. LRRK2 expression levels were analyzed by Western blot. FIGS. 2Q and 2R depict the LRRK2 expression levels in mouse striatum upon AICAr treatment. AICAr (72 μg/day/animal) or saline (used as a control) was injected into mouse striatum via osmotic pumps. One day after injection, striatal tissues near the injection sites were collected and LRRK2 expression levels were analyzed by Western blot. Images were quantified by ImageJ software. Data are mean±SEM from total six mice (three male mice and three female mice). ****p<0.0001 by Student's t tests. […] FIG. 2T depicts the quantification of neuronal viability. Bars indicate the viability (n>100) for each transfection condition expressed as a percent of control neurons (eGFP with pcDNA3.1 empty vector). Data represent the mean±SEM from three independent experiments with n>100 cells quantified in each experiment. *p<0.05, ***p<0.001, ****p<0.0001 by one-way ANOVA followed by a Tukey's post hoc test.
FIGS. 3A-3J depict that AICAr regulates LRRK2 at mRNA level and through a specific region. […] LRRK2 expression levels were analyzed by Western blot. Images were quantified by ImageJ software. […] LRRK2 and GBA mRNA levels were analyzed by real-time PCR. […] LRRK2 mRNA levels were analyzed by real-time PCR. […]

For assay [2], the system named is LRRK2. Put plainly: LRRK2 levels in mouse primary neurons, microglia, astrocytes, Western blot. The note with it: 1 mM, 48 hours. Format: cell-based. As to the method:
as §1, with “HEK 293T cells were transfected with MYC-LRRK2 WT, R1441C (RC), R1441G (RG), Y1699C (YC), G2019S (GS) or I2020T (IT) and treated with or without 1 mM AICAr for 48 hours.” left out, “FIGS. 2Q and 2R depict the LRRK2 expression levels in mouse striatum upon AICAr treatment. AICAr (72 μg/day/animal) or saline (used as a control) was injected into mouse striatum via osmotic pumps.” left out, “software.” for “software. Data are mean±SEM from total six mice (three male mice and three female mice). ****p<0.0001 by Student's t tests.”

The subject of assay [3] is GBA, α-Synuclein, VPS35, Parkin, PINK, and DJ-1. Put plainly: Protein levels of other PD-associated proteins in HEK 293T cells, Western blot. Format: cell-based, human. The conditions noted are these: tagged proteins, 1 mM, 48 hours. As to the method: FIGS. 2A-2T depicts that AICAr, the precursor of ATIC substrate, regulates LRRK2 expression levels and neuronal toxicity. FIGS. 2A and 2B depict the overexpressed LRRK2 levels in HEK 293T cells upon AICAr treatment. HEK293 cells were transfected with MYC-LRRK2 and treated with or without 1 mM AICAr for 48 hours. LRRK2 levels were analyzed by Western blot. FIGS. 2C and 2D depict the LRRK2 expression levels in SH-SY5Y cells upon AICAr treatment. Human neuroblastoma SH-SY5Y cells were treated with or without 1 mM AICAr for 48 hours. LRRK2 expression levels were analyzed by Western blot. FIGS. 2E and 2F depict the overexpressed (3-glucocerebrosidase (GCase) levels upon AICAr treatment. HEK 293T cells were transfected with V5-GCase and treated with or without 1 mM AICAr for 48 hours. GCase levels were analyzed by Western blot. FIGS. 2G-2N depict the LRRK2 expression levels in primary neurons (FIG. 2G and FIG. 2H), microglia (FIG. 2I and FIG. 2J), astrocytes (FIG. 2K and FIG. 2L) and human fibroblasts (FIG. 2M and FIG. 2N) upon AICAr treatment. Mouse primary cortical neurons, microglia, astrocytes or human fibroblasts from a health control were treated with or without 1 mM AICAr for 48 hours. LRRK2 expression levels were analyzed by Western blot. […] LRRK2 expression levels were analyzed by Western blot. […] Images were quantified by ImageJ software. […]

Turning to `NC(=O)c1ncn([C@@H]2O[C@H](CO)[C@@H](O)[C@H]2O)c1N` [AICAr, 5-aminoimidazole-4-carboxamide riboside], the “endogenous levels of DCP2” value with DCP2 is on record as “significantly increased”. Besides, the “native LRRK2 cDNA expression” value in the assay on LRRK2 [1] (HEK 293T, Flag-LRRK2 native cDNA, 1 mM, 48 hours) is given as “great suppress”. Further, the “expression of synthesized LRRK2 cDNA with synonymous codons” value in the assay with LRRK2 [1] (HEK 293T, Flag-LRRK2 synthesized cDNA, 1 mM, 48 hours) is given as “no obvious effects”. Further, the “overexpressed LRRK2 levels” value with LRRK2 [1] (HEK293 cells transfected with MYC-LRRK2, 1 mM, 48 hours) is “decreased”. In addition, the “chimeric LRRK2 cDNA expression” value with LRRK2 [1] (synthesized cDNA with region 2221-3927 bp replaced by native sequence) was “great suppression”. Further, in the assay on LRRK2 [2] (mouse primary astrocytes), the “LRRK2 levels in astrocytes” value was “remained unchanged”. For the same compound, the “LRRK2 levels in neurons” value in the assay with LRRK2 [2] (mouse primary cortical neurons) is listed as “significantly decrease”. Further, the “LRRK2 levels in microglia” value in the assay on LRRK2 [2] (mouse primary microglia) was “significantly decrease”. Moreover, in assay [3], the “levels of other PD-associated proteins (GBA, α-Synuclein, VPS35, Parkin, PINK, DJ-1)” value is recorded as “no changes”.

(Values after US20240075050A1, “Methods and Compositions for Treating Leucine Rich Repeat Kinase 2 (LRRK2)-Associated Disorder or Condition” (University of Connecticut, priority 2022, published 2024).)
